What was measured:
[1] = target: T1, Full length Human HDAC2 (Homo sapiens, UniProt Q92769); assay: HDAC2 enzymatic assay (deacetylation of FAM-labeled peptide substrate, microfluidic electrophoresis); assay type: biochemical; conditions: recombinant enzymatic assay
T1 construct: Full length Human HDAC2; FLAG (C); host or cells: baculovirus expression system
Protocol: (§1) HDAC2 and HDAC1 Enzymatic Assay (HDAC2 and HDAC1 IC50 Data)
(§2) The following describes an assay protocol for measuring the deacetylation of a peptide substrate by HDAC2 or HDAC1.
(§3) HD AC protein composition and respective substrate peptides are summarized below.
(§4) HD AC reactions are assembled in 384 well plates (Greiner) in a total volume of 20 μL as following:
(§5) HDAC proteins are pre-diluted in the assay buffer comprising: 100 mM HEPES, pH 7.5, 0.1% BSA, 0.01% Triton X-100, 25 mM KCl and dispensed into 384 well plate (10 uL per well).
(§6) Test compounds are serially pre-diluted in DMSO and added to the protein samples by acoustic dispensing (Labcyte Echo). Concentration of DMSO is equalized to 1% in all samples.
(§7) Control samples (0%-inhibition in the absence of inhibitor, DMSO only) and 100%-inhibition (in the absence of enzyme) are assembled in replicates of four and used to calculate the %-inhibition in the presence of compounds.
(§8) At this step compounds can be pre-incubated with enzyme if desired.
(§9) The reactions are initiated by addition of 10 uL of the FAM-labeled substrate peptide pre-diluted in the same assay buffer. Final concentration of substrate peptide is 1 uM (HDAC1-2).
(§10) The reactions are allowed to proceed at room temperature. Following incubation, the reactions are quenched by addition of 50 μL of termination buffer (100 mM HEPES, pH7.5, 0.01% Triton X-100, 0.1% SDS). Terminated plates are analyzed on a microfluidic electrophoresis instrument (Caliper LabChip® 3000, Caliper Life Sciences/Perkin Elmer) which enables electrophoretic separation of de-acetylated product from acetylated substrate. A change in the relative intensity of the peptide substrate and product is the parameter measured. Activity in each test sample is determined as the product to sum ratio (PSR): P/(S+P), where P is the peak height of the product, and S is the peak height of the substrate. Percent inhibition (Pinh) is determined using the following equation: Pinh=(PSR0% inh−PSRcompound)/(PSR0% inh−PSR100% inh)*100, in which: PSRcompound is the product/sum ratio in the presence of compound, PSR0% inh is the product/sum ratio in the absence of compound and the PSR100% inh is the product/sum ratio in the absence of the enzyme. To determine IC50 of compounds (50%-inhibition) the %-inh data (Pinh versus compound concentration) are fit by a 4 parameter sigmoid dose-response model using XLfit software (IDBS).
(§11) In the table, “A” indicates a IC50 value of less than 0.5 μM; “B” a IC50 value from 0.5 μM to 1.0 μM; “C” a IC50 value of greater than 1.0 μM and less than or equal to 2.0 μM; and “D” indicates an IC50 value of greater than 2.0 μM. NT=Not Tested.

[2] = target: T2, Full length Human HDAC1 (Homo sapiens, UniProt Q13547); assay: HDAC1 enzymatic assay (deacetylation of FAM-labeled peptide substrate, microfluidic electrophoresis); assay type: biochemical; conditions: recombinant enzymatic assay
T2 construct: Full length Human HDAC1; His (C); FLAG (C); host or cells: baculovirus expression system
Protocol: as §1, §2, §3, §4, §5, §6, §7, §8, §9, §10, §11

[3] = target: T3, HDAC2 (Homo sapiens, UniProt Q92769); assay: HDAC2 Enzymatic Inhibition Assay in SH-SY5Y Cell Lysate with an Exogenous Substrate (HDAC-Glo 2); assay type: cell-based; conditions: SH-SY5Y cells
T3 construct: host or cells: SH-SY5Y cells
Protocol: HDAC2 Enzymatic Inhibition Assay in SH-SY5Y Cell Lysate with an Exogenous Substrate
SH-SY5Y cells (Sigma) were cultured in Eagle's Modified Essential Medium supplemented with 10% fetal bovine serum and pen/strep. Twenty-four hours prior to compound dosing 20 uL of cells were plated in white 384 well plates at a density of 1,500 cells/well. Compounds were serially diluted in neat DMSO and then diluted 1:100 v/v into media without FBS and mixed. Media was removed from the plated cells and the diluted compounds in serum free media (1% v/v final DMSO) were added and incubated at 37° C. for five hours. Ten uL of HDAC-Glo 2 reagent with 0.1% Triton X-100 was then added, the plate was mixed and allowed to develop at room temperature for 100 minutes. Plates were then read with a Spectramax LMax luminometer employing a 0.4 s integration time. Dose response curves were constructed with normalized data where CI-994 at 100 uM was defined as 100% inhibition and DMSO alone as 0% inhibition.
as §11

[4] = five hours incubation, Table 3, class symbols

T3 sequence (Q92769 whole entry): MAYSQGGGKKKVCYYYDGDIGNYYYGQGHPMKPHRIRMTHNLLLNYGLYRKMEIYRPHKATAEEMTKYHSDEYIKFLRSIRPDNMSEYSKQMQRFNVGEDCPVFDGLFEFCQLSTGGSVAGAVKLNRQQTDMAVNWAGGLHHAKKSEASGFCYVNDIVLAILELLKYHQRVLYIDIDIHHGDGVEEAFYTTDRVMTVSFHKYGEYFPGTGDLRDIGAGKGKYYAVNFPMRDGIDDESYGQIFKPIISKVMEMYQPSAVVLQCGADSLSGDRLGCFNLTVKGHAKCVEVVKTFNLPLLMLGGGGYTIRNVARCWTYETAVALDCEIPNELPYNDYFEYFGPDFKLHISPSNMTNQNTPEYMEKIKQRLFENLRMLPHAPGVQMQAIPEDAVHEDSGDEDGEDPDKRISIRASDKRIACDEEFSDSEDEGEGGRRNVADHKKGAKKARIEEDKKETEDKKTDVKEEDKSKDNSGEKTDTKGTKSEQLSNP
T1 sequence (Q92769 whole entry): as above
T2 sequence (Q13547 whole entry): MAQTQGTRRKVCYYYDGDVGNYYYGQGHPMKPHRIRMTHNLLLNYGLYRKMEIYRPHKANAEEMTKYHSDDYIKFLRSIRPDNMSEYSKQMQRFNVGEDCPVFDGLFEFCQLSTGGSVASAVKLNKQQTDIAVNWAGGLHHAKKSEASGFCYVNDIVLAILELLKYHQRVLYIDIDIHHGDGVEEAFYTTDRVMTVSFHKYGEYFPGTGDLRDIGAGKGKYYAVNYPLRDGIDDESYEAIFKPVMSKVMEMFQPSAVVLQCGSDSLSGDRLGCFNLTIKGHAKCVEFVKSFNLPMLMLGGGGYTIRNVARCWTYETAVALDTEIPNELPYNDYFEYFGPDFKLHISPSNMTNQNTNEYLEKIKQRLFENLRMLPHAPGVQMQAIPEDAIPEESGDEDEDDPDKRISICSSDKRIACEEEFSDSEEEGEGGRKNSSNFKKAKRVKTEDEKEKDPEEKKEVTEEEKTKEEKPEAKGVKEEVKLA

SMILES	IC50 ([1]; Table 2, class symbols)	IC50 ([2]; Table 2, class symbols)	IC50 [3, 4]	IC50 ([1]; Table 4, numeric)	IC50 ([2]; Table 4, numeric)	IC50 ([3]; Table 4, numeric)	IC50 ([1]; Table 2, numeric value)	IC50 ([2]; Table 2, numeric value)
Cc1ccc(CC2CN(C(=O)Nc3nc(-c4ccc(F)cc4F)ccc3N)C2)cn1 [Compound 5]	1000 to 2000 nM	1000 to 2000 nM	> 2000 nM	–	–	–	–	–
Cn1ccnc1CC1(F)CN(C(=O)Nc2nc(-c3ccc(F)cc3)ccc2N)C1 [Compound 86]	> 2000 nM	1000 to 2000 nM	1000 to 2000 nM	–	–	–	–	–
Cc1nnc(CC2CN(C(=O)Nc3nc(-c4ccc(F)cc4F)ccc3N)C2)s1 [Compound 45]	1000 to 2000 nM	500 to 1000 nM	500 to 1000 nM	–	–	–	–	–
Nc1ccc(-c2ccc(F)cc2)nc1NC(=O)N1CC(Cc2ccc(F)cn2)C1 [Compound 77]	1000 to 2000 nM	< 500 nM	> 2000 nM	–	–	–	–	–
CC(F)(F)c1cnc(CC2CN(C(=O)Nc3nc(-c4ccc(F)cc4)ccc3N)C2)nc1 [Compound 81]	500 to 1000 nM	< 500 nM	> 2000 nM	–	–	–	–	–
Nc1ccc(-c2ccc(F)cc2)nc1NC(=O)N1CC(Cc2ncccn2)C1 [Compound 64]	1000 to 2000 nM	< 500 nM	500 to 1000 nM	–	–	–	–	–
Nc1ccc(-c2cccs2)nc1NC(=O)N1CC(Cc2ncc(F)cn2)C1 [Compound 69]	1000 to 2000 nM	< 500 nM	1000 to 2000 nM	–	–	–	–	–
COCc1cnc(CC2CN(C(=O)Nc3nc(-c4ccc(F)cc4)ccc3N)C2)nc1 [Compound 82]	500 to 1000 nM	< 500 nM	1000 to 2000 nM	–	–	–	–	–
COC1(Cc2nccn2C)CN(C(=O)Nc2nc(-c3ccc(F)cc3)ccc2N)C1 [Compound 87]	> 2000 nM	> 2000 nM	1000 to 2000 nM	–	–	–	–	–
Cc1cncc(CC2CN(C(=O)Nc3nc(-c4ccc(F)cc4F)ccc3N)C2)n1 [Compound 13]	1000 to 2000 nM	1000 to 2000 nM	1000 to 2000 nM	–	–	–	–	–
Nc1ccc(-c2ccc(F)s2)nc1NC(=O)N1CC(Cc2ncccn2)C1 [Compound 66]	500 to 1000 nM	< 500 nM	1000 to 2000 nM	–	–	–	–	–
CC(c1ncccn1)C1CN(C(=O)Nc2nc(-c3ccc(F)cc3)ccc2N)C1 (stereo not drawn) [Compound 57]	500 to 1000 nM	< 500 nM	1000 to 2000 nM	–	–	–	–	–
Nc1ccc(-c2ccc(F)cc2)nc1NC(=O)N1CC(Cc2ncc(C(F)(F)F)cn2)C1 [Compound 84]	–	–	> 2000 nM	–	–	–	1190 nM	346 nM
COCc1ccc(CC2CN(C(=O)Nc3nc(-c4ccc(F)cc4)ccc3N)C2)nc1 [Compound 83]	500 to 1000 nM	< 500 nM	1000 to 2000 nM	–	–	–	–	–
Nc1ccc(-c2ccc(F)cc2)nc1NC(=O)N1CC(Cc2cnc(C(F)(F)F)nc2)C1 [Compound 78]	> 2000 nM	> 2000 nM	> 2000 nM	–	–	–	–	–
Nc1ccc(-c2ccc(F)cc2)nc1NC(=O)N1CC(Cn2cccn2)C1 [Compound 73]	1000 to 2000 nM	500 to 1000 nM	1000 to 2000 nM	–	–	–	–	–
Cc1ncc(CC2CN(C(=O)Nc3nc(-c4ccc(F)cc4)ccc3N)C2)cn1 [Compound 80]	1000 to 2000 nM	500 to 1000 nM	1000 to 2000 nM	–	–	–	–	–

Further lines, results first:

IC50 ([1]; Table 2, class symbols)	IC50 ([2]; Table 2, class symbols)	IC50 [3, 4]	IC50 ([1]; Table 4, numeric)	IC50 ([2]; Table 4, numeric)	IC50 ([3]; Table 4, numeric)	IC50 ([1]; Table 2, numeric value)	IC50 ([2]; Table 2, numeric value)	SMILES
> 2000 nM	> 2000 nM	> 2000 nM	–	–	–	–	–	Nc1ccc(-c2ccc(F)cc2F)nc1NC(=O)N1CC(Cn2ccnc2)C1 [Compound 31]
500 to 1000 nM	500 to 1000 nM	1000 to 2000 nM	–	–	–	–	–	Nc1ccc(-c2ccc(F)cc2F)nc1NC(=O)N1CC(Cc2cnccn2)C1 [Compound 12]
500 to 1000 nM	500 to 1000 nM	1000 to 2000 nM	–	–	–	–	–	Nc1ccc(-c2ccc(F)cc2F)nc1NC(=O)N1CC(C(F)(F)c2ncccn2)C1 [Compound 33]
< 500 nM	< 500 nM	1000 to 2000 nM	–	–	–	–	–	Nc1ccc(-c2ccc(F)cc2)nc1NC(=O)N1CC(C(F)(F)c2ncccn2)C1 [Compound 36]
500 to 1000 nM	1000 to 2000 nM	500 to 1000 nM	–	–	–	–	–	Nc1ccc(-c2ccc(F)cc2F)nc1NC(=O)N1CC(Cc2cccnn2)C1 [Compound 23]
> 2000 nM	> 2000 nM	1000 to 2000 nM	2800 nM	2260 nM	1560 nM	–	–	Cc1ncc(CC2CN(C(=O)Nc3nc(-c4ccc(F)cc4F)ccc3N)C2)cn1 [Compound 6]
< 500 nM	< 500 nM	500 to 1000 nM	–	–	–	–	–	Nc1ccc(-c2ccc(F)cc2)nc1NC(=O)N1CC(C(F)(F)c2ncc(F)cn2)C1 [Compound 38]
> 2000 nM	500 to 1000 nM	> 2000 nM	–	–	–	–	–	Nc1ccc(-c2ccc(F)cc2F)nc1NC(=O)N1CC(CCc2ccccn2)C1 [Compound 43]
> 2000 nM	> 2000 nM	1000 to 2000 nM	–	–	–	–	–	Cc1cnc(CC2CN(C(=O)Nc3nc(-c4ccc(F)cc4F)ccc3N)C2)nc1 [Compound 7]
500 to 1000 nM	500 to 1000 nM	500 to 1000 nM	–	–	–	–	–	Cc1ccnc(CC2CN(C(=O)Nc3nc(-c4ccc(F)cc4F)ccc3N)C2)n1 [Compound 11]
1000 to 2000 nM	500 to 1000 nM	1000 to 2000 nM	–	–	–	–	–	Nc1ccc(-c2ccc(F)cc2F)nc1NC(=O)N1CC(Cc2cccnc2)C1 [Compound 3]
1000 to 2000 nM	500 to 1000 nM	< 500 nM	–	–	–	–	–	CC(c1ncccn1)C1CN(C(=O)Nc2nc(-c3ccc(F)cc3F)ccc2N)C1 (stereo not drawn) [Compound 42]
1000 to 2000 nM	500 to 1000 nM	500 to 1000 nM	–	–	–	–	–	Nc1ccc(-c2ccc(F)cc2F)nc1NC(=O)N1CC(C(F)c2ncccn2)C1 (stereo not drawn) [Compound 40]
1000 to 2000 nM	500 to 1000 nM	1000 to 2000 nM	–	–	–	–	–	Cn1ccnc1CC1CN(C(=O)Nc2nc(-c3ccc(F)cc3F)ccc2N)C1 [Compound 47]
500 to 1000 nM	< 500 nM	1000 to 2000 nM	–	–	–	–	–	Nc1ccc(-c2ccc(F)cc2F)nc1NC(=O)N1CC(Cc2ccccn2)C1 [Compound 2]
500 to 1000 nM	< 500 nM	> 2000 nM	–	–	–	–	–	Nc1ccc(-c2ccc(F)cc2F)nc1NC(=O)N1CC(Oc2ncccn2)C1 [Compound 59]
1000 to 2000 nM	1000 to 2000 nM	1000 to 2000 nM	–	–	–	–	–	Nc1ccc(-c2ccc(F)cc2F)nc1NC(=O)N1CC(Cn2cccn2)C1 [Compound 30]

— patent US20210276977A1, “BICYCLIC INHIBITORS OF HISTONE DEACETYLASE” (Alkermes, Inc., priority 2018, published 2021)
